# Measured values from paper PMC5793879 (Cancer cell, 2017).
# Read-outs that look alike come from different tables or passages of the source. Bridge positions count the residues as written; N and C are the ends. Square brackets hold non-standard residues; d marks the D form. Peptide text beside a SMILES is read from it. S5 = C=CCCC[C@](C)(N)C(=O)O
# Legend:
# BCL-XL = BCL-XL (Homo sapiens, UniProt Q07817); type: binding; conditions: BTSA1 at 50 μM
# MCL-1 = MCL-1 (Homo sapiens, UniProt Q07820); type: binding
# BFL-1/A1 = target: T1, BFL-1/A1 (Homo sapiens, UniProt Q16548); type: binding; conditions: BTSA1 at 50 μM
# T1 sequence (Q16548 1-151 limits assumed): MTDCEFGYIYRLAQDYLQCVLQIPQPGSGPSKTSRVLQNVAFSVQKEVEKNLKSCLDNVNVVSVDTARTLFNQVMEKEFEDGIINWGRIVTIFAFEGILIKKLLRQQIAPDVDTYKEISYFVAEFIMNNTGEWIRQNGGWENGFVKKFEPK
# MEF cell lines = assay: Viability assay of MEF cell lines; type: cell-based, mouse
# [1] = test system: isolated mitochondria from mouse liver; conditions: without addition of BAX
# [2] = test system: BAX KO MEF, DKO MEF, wild type MEF, H9c2 myocytes, 3T3 fibroblasts
# [3] = target: BAX trigger site (full-length BAX) (Homo sapiens, UniProt Q07812); type: binding; conditions: relative to BTSA1
# OCI-AML3 cells = assay: Caspase-3/7 activation assay; type: cell-based, human; conditions: co-treatment with BTSA1
# MCL-1, sequence (Q07820 170-327 limits assumed): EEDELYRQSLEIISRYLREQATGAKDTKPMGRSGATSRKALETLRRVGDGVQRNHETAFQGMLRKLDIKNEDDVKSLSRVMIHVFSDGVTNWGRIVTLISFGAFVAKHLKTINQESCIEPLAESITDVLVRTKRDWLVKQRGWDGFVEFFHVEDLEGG
# BCL-XL, sequence (Q07817 1-212 limits assumed): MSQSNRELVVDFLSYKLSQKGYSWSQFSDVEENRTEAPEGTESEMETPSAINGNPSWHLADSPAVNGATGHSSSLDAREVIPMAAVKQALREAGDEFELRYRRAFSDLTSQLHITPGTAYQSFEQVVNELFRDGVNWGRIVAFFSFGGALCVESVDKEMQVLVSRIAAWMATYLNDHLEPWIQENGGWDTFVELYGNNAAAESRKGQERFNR
# BAX trigger site (full-length BAX), sequence (Q07812 whole entry): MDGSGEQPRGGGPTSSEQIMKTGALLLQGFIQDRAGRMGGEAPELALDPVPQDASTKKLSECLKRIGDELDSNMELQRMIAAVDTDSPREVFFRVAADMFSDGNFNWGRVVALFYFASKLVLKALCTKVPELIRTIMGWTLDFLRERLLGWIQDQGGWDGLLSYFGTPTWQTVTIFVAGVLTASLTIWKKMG
smiles,measurement,setting,value
"CC[C@H](C)[C@H](NC(=O)[C@H](Cc1c[nH]c2ccccc12)NC(=O)[C@@H](NC(=O)[C@H](CCC(=O)O)NC(C)=O)[C@@H](C)CC)C(=O)N[C@@H](C)C(=O)N[C@@H](CCC(N)=O)C(=O)N[C@@H](CCC(=O)O)C(=O)N[C@@H](CC(C)C)C(=O)N[C@@H](CCCNC(=N)N)C(=O)N[C@@]1(C)CCCC=CCCC[C@@](C)(C(=O)N[C@@H](Cc2ccccc2)C(=O)N[C@@H](CC(N)=O)C(=O)N[C@@H](C)C(=O)N[C@@H](Cc2ccc(O)cc2)C(=O)N[C@@H](Cc2ccc(O)cc2)C(=O)N[C@@H](C)C(N)=O)NC(=O)[C@H](CC(=O)O)NC(=O)CNC(=O)[C@H]([C@@H](C)CC)NC1=O [BIM SAHBA2, reference compound] (Ac-EIWIAQELR[S5]IGD[S5]FNAYYA-NH2; staple 10-14 (inferred))",competition of FITC-BIM SAHBA2 binding to BCL-XL,BCL-XL,effectively competed
same,competition of FITC-BIM SAHBA2 binding to MCL-1,MCL-1; BTSA1 at 50 μM,effectively competed
same,competition of FITC-BIM SAHBA2 binding to BFL-1/A1,BFL-1/A1,effectively competed
O=C1C(=NNc2nccs2)C(c2ccccc2)=NN1c1nc(-c2ccccc2)cs1 [BTSA1],competition of FITC-BIM SAHBA2 binding to BCL-XL,BCL-XL,no capacity to compete
same,competition of FITC-BIM SAHBA2 binding to MCL-1,MCL-1,no capacity to compete
same,sensitivity of MEF cell lines,MEF cell lines,insensitive
same,cytochrome c release,[1],no effect
same,"sensitivity to treatment, cells with no BAX expression","[2]; BAX KO MEF and DKO MEF, 24 hr",exhibit resistance
same,"sensitivity to treatment, cells that express BAX","[2]; wild type MEF, H9c2 myocytes, 3T3 fibroblasts, doses giving complete cell death in AML cells",still exhibit resistance
CC1=NN(c2nc(-c3ccccc3)cs2)C(=O)C1=NNc1nccs1 [BTSA2],reduction in binding capacity to BAX,[3],~ 10 fold
"CC1(C)CCC(c2ccc(Cl)cc2)=C(CN2CCN(c3ccc(C(=O)NS(=O)(=O)c4ccc(N[C@H](CCN5CCOCC5)CSc5ccccc5)c(S(=O)(=O)C(F)(F)F)c4)cc3)CC2)C1 [Navitoclax, reference compound]",IC50,"MEF cell lines; Mus musculus, MEF, read-out: IC50, viability",1 to 5 µM
OC(CN1CCNCC1)Cn1c2ccc(Br)cc2c2cc(Br)ccc21 (stereo not drawn) [reference compound],inhibition of BTSA1-mediated apoptosis measured by caspase-3/7 activation,OCI-AML3 cells,complete inhibition
